One block for each molecule: values may come before it.
Key:
[1] = tested on: WI-38; assay: Cytotoxicity against human WI-38 cells assessed as inhibition of cell proliferation incubated for 72 hrs by MTT assay; assay type: cell-based; settings: WI-38, 72 h
[2] = tested on: Trypanosoma brucei rhodesiense; assay: Antitrypanosomal activity against Trypanosoma brucei rhodesiense IL-1501 assessed as inhibition of parasitic growth incubated for 69 hrs by resazurin dye based fluorescence assay; assay type: functional, organism-based; settings: IL-1501, 69 h

Structure (SMILES): CC[C@H](C)[C@@H](C(=O)N1CCC[C@@H]1C(=O)N1C(=O)C=C(OC)[C@@H]1C(C)C)N(C)C(=O)[C@@H]1CCCN1C(=O)[C@H](C(C)C)N(C)C(=O)[C@@H](Cc1ccccc1)NC(=O)[C@H](Cc1ccccc1)N(C)C
IC50 [1]: > 20 µM | IC50 [2]: 1.8 µM

Structure (SMILES): N=C(N)c1ccc(OCCCCCOc2ccc(C(=N)N)cc2)cc1 [PENTAMIDINE]
IC50 [2]: 0.005 µM

Structure (SMILES): COC1=CC(=O)N[C@H]1C(C)C
IC50 [1]: > 50 µM | IC50 [2]: 35 µM

Now from value to molecule, other results behind:

IC50 [2]: 24 µM
Structure (SMILES): CC[C@H](C)[C@H](NC)C(=O)N1CCCC1C(=O)N1C(=O)C=C(OC)[C@@H]1C(C)C (single isomer, unassigned)
IC50 [1]: > 50 µM

IC50 [2]: 17 µM
Structure (SMILES): CC[C@H](C)[C@@H](C(=O)N1CCCC1C(=O)N1C(=O)C=C(OC)[C@@H]1C(C)C)N(C)C(=O)[C@@H]1CCCN1C(=O)[C@@H](NC)C(C)C (single isomer, unassigned)
IC50 [1]: > 50 µM

IC50 [2]: 33 µM
Structure (SMILES): COC1=CC(=O)N(C(=O)C2CCCN2)[C@H]1C(C)C (single isomer, unassigned)
IC50 [1]: > 50 µM

IC50 [2]: 15 µM
Structure (SMILES): CC[C@H](C)[C@@H](C(=O)N1CCCC1C(=O)N1C(=O)C=C(OC)[C@@H]1C(C)C)N(C)C(=O)[C@@H]1CCCN1 (single isomer, unassigned)
IC50 [1]: > 50 µM
